Positions of bridges follow the written chain, without caps; N, C: chain ends. Non-standard residues stand in square brackets, D forms with d. Residues, ends and D or L forms follow the SMILES beside them. Gly(octyl) = CCCCCCCC[C@H](N)C(=O)O; Nle = CCCC[C@H](N)C(=O)O; Nva = CCC[C@H](N)C(=O)O
Legend:
Experiment in all cases: cell-based
hNav1.7 = hNav1.7 (Homo sapiens, UniProt Q15858); assay type: cell-based; conditions: IonWorks Quattro, use-dependent block, hNav1.7; read-out: IWQ Use Nav1.7
hNav1.5 = hNav1.5 (Homo sapiens, UniProt Q14524); conditions: IonWorks Quattro, use-dependent block, hNav1.5; read-out: IWQ Use Nav1.5
hNav1.5, sequence (Q14524 whole entry, looked up): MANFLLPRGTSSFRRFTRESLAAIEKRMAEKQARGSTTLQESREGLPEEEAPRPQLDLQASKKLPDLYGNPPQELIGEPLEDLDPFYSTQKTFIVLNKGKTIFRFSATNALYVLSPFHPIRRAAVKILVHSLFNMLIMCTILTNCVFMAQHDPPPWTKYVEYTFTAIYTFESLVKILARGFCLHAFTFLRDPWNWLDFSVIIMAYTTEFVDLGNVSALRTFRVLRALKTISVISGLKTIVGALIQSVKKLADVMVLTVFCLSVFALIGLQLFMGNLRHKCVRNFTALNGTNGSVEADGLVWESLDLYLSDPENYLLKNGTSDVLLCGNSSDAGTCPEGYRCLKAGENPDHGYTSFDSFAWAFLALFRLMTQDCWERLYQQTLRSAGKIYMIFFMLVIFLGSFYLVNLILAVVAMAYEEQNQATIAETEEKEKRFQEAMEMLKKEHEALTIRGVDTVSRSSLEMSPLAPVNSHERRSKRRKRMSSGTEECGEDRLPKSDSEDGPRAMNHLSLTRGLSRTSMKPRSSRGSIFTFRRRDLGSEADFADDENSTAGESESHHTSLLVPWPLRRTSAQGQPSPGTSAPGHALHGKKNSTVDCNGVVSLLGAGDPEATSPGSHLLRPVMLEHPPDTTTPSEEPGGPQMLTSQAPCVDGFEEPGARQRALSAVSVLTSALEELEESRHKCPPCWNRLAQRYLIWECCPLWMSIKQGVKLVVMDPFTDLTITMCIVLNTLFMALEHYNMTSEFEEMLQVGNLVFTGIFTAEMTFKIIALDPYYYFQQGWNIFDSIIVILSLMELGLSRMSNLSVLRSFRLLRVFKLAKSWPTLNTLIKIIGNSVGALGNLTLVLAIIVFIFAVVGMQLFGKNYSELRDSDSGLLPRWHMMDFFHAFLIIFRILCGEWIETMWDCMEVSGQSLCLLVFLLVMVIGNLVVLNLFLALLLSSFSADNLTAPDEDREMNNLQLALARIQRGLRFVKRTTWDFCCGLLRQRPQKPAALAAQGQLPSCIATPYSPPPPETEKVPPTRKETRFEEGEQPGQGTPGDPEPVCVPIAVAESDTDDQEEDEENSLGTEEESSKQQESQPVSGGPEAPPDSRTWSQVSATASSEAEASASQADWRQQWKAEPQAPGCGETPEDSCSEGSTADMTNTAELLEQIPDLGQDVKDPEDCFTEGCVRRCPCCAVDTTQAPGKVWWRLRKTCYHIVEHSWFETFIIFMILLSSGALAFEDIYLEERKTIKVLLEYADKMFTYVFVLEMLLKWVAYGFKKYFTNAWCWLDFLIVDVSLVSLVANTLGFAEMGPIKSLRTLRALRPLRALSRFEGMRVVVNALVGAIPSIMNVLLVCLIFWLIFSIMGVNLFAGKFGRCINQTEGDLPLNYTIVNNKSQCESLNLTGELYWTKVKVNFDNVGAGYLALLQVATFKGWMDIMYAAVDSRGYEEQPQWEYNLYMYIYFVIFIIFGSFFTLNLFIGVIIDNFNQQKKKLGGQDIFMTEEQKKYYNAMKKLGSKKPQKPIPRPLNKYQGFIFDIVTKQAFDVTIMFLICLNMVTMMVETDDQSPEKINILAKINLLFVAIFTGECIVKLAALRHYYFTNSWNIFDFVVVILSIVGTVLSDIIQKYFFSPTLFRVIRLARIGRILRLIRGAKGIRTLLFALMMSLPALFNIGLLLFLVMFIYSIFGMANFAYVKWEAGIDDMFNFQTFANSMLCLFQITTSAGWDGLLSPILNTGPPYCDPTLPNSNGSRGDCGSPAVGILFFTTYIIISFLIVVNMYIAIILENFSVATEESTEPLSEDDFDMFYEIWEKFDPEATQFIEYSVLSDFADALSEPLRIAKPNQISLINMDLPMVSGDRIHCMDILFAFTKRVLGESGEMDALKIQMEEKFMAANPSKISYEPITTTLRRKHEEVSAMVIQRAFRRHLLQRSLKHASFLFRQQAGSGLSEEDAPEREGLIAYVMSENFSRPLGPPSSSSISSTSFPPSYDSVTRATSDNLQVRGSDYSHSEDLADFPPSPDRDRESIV

hNav1.3 = hNav1.3 (Homo sapiens, UniProt Q9NY46); conditions: IonWorks Quattro, use-dependent block, hNav1.3; read-out: IWQ Use Nav1.3

hNav1.7, sequence (Q15858 whole entry, looked up): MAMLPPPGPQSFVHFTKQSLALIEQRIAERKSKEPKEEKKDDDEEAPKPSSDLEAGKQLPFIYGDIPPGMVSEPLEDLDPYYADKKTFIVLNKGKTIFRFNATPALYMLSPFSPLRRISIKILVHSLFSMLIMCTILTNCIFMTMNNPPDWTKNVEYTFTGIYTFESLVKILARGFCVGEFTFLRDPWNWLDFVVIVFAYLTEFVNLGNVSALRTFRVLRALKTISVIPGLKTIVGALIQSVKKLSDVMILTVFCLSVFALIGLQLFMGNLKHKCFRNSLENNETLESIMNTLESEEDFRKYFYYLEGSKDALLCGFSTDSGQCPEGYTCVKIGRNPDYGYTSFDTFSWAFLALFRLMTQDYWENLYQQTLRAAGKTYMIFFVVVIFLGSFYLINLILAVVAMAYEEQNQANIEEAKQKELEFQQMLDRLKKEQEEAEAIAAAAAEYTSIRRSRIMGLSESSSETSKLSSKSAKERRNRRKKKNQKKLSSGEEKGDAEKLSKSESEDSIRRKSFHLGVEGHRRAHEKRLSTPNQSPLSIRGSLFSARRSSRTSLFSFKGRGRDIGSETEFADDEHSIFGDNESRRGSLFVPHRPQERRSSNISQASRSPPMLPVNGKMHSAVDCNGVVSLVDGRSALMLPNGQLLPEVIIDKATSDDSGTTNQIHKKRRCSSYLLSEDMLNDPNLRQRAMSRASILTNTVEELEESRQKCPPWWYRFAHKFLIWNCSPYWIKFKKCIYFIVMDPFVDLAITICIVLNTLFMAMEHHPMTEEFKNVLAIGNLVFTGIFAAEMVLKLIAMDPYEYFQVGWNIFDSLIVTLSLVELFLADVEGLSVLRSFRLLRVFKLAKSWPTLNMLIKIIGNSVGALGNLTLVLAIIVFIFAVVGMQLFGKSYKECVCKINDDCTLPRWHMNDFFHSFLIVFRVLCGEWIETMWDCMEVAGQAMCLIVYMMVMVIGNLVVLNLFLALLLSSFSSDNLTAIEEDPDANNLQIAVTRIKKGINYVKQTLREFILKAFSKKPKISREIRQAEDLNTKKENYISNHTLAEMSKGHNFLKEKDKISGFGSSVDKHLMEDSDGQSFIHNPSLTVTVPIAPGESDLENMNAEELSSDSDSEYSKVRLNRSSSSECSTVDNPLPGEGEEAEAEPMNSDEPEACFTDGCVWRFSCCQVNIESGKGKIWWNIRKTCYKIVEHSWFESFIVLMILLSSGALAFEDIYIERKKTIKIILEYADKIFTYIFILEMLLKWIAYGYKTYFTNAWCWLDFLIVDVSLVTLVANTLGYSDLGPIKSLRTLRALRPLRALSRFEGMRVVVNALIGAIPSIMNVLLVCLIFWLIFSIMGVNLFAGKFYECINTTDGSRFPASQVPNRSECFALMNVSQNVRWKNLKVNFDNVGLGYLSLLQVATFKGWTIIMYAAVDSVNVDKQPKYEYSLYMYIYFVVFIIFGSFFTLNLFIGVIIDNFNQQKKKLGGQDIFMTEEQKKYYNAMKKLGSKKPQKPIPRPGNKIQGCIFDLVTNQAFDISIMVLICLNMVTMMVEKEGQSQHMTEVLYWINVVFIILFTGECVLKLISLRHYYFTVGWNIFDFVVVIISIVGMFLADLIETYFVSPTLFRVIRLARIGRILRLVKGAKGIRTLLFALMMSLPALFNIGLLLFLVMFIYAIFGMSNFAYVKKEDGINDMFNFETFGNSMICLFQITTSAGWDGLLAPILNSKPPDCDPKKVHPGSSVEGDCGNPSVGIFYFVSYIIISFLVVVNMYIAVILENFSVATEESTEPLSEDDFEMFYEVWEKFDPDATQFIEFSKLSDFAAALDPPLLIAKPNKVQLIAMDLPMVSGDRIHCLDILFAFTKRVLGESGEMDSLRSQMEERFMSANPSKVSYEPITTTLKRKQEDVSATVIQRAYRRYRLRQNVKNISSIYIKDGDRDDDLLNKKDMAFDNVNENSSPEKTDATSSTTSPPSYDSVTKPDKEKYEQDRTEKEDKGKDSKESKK

Structure (SMILES) | IC50 (hNav1.7) | IC50 (hNav1.5) | IC50 (hNav1.3)
CCC[C@@H]1NC(=O)CNC(=O)[C@H](CC(C)C)NC(=O)[C@@H](NC(=O)[C@@H](N)CC(=O)O)CSSC[C@@H]2NC(=O)[C@@H]3CSSC[C@@H](C(=O)N[C@@H](CCCCN)C(=O)N[C@@H](Cc4ccc(O)cc4)C(=O)N[C@H](C(=O)N[C@@H](Cc4ccccc4)C(N)=O)C(C)C)NC(=O)[C@H](Cc4c[nH]c5ccccc45)NC(=O)[C@H](CCCCN)NC(=O)[C@H](Cc4c[nH]cn4)NC(=O)[C@H]([C@@H](C)O)NC(=O)[C@H](CCCNC(=N)N)NC(=O)[C@H](CO)NC(=O)[C@H](CSSC[C@H](NC(=O)[C@H](CCCCN)NC(=O)[C@H](CCCNC(=N)N)NC(=O)[C@H](Cc4ccccc4)NC1=O)C(=O)N[C@@H]([C@@H](C)CC)C(=O)N1CCC[C@H]1C(=O)N[C@@H](CC(=O)O)C(=O)N[C@@H](CC(N)=O)C(=O)N[C@@H](CC(=O)O)C(=O)N[C@@H](CCCCN)C(=O)N3)NC(=O)[C@H](C(C)C)NC(=O)[C@H](CC(C)C)NC(=O)[C@H](CC(N)=O)NC(=O)[C@@H]1CCCN1C(=O)[C@H](CCCNC(=N)N)NC2=O [compound 606] (H-DCLG[Nva]FRKCIPDNDKCCRPNLVCSRTHKWCKYVF-NH2; disulfide 2-17, 9-23, 16-30) | 0.084 µM | 7.8 µM | 0.17 µM
CCCC[C@@H]1NC(=O)CNC(=O)[C@H](CC(C)C)NC(=O)[C@@H](NC(=O)[C@@H](N)CC(=O)O)CSSC[C@@H]2NC(=O)[C@@H]3CSSC[C@@H](C(=O)N[C@@H](CCCCN)C(=O)N[C@@H](Cc4ccc(O)cc4)C(=O)N[C@H](C(=O)N[C@@H](Cc4ccccc4)C(N)=O)C(C)C)NC(=O)[C@H](Cc4c[nH]c5ccccc45)NC(=O)[C@H](CCCCN)NC(=O)[C@H](Cc4c[nH]cn4)NC(=O)[C@H]([C@@H](C)O)NC(=O)[C@H](CCCNC(=N)N)NC(=O)[C@H](CO)NC(=O)[C@H](CSSC[C@H](NC(=O)[C@H](CCCCN)NC(=O)[C@H](CCCNC(=N)N)NC(=O)[C@H](Cc4ccccc4)NC1=O)C(=O)N[C@@H]([C@@H](C)CC)C(=O)N1CCC[C@H]1C(=O)N[C@@H](CC(=O)O)C(=O)N[C@@H](CC(N)=O)C(=O)N[C@@H](CC(=O)O)C(=O)N[C@@H](CCCCN)C(=O)N3)NC(=O)[C@H](C(C)C)NC(=O)[C@H](CC(C)C)NC(=O)[C@H](CC(N)=O)NC(=O)[C@@H]1CCCN1C(=O)[C@H](CCCNC(=N)N)NC2=O [compound 607] (H-DCLG[Nle]FRKCIPDNDKCCRPNLVCSRTHKWCKYVF-NH2; disulfide 2-17, 9-23, 16-30) | 0.016 µM | 11.3 µM | 0.067 µM
CCCCCCCC[C@@H]1NC(=O)CNC(=O)[C@H](CC(C)C)NC(=O)[C@@H](NC(=O)[C@@H](N)CC(=O)O)CSSC[C@@H]2NC(=O)[C@@H]3CSSC[C@@H](C(=O)N[C@@H](CCCCN)C(=O)N[C@@H](Cc4ccc(O)cc4)C(=O)N[C@H](C(=O)N[C@@H](Cc4ccccc4)C(N)=O)C(C)C)NC(=O)[C@H](Cc4c[nH]c5ccccc45)NC(=O)[C@H](CCCCN)NC(=O)[C@H](Cc4c[nH]cn4)NC(=O)[C@H]([C@@H](C)O)NC(=O)[C@H](CCCNC(=N)N)NC(=O)[C@H](CO)NC(=O)[C@H](CSSC[C@H](NC(=O)[C@H](CCCCN)NC(=O)[C@H](CCCNC(=N)N)NC(=O)[C@H](Cc4ccccc4)NC1=O)C(=O)N[C@@H]([C@@H](C)CC)C(=O)N1CCC[C@H]1C(=O)N[C@@H](CC(=O)O)C(=O)N[C@@H](CC(N)=O)C(=O)N[C@@H](CC(=O)O)C(=O)N[C@@H](CCCCN)C(=O)N3)NC(=O)[C@H](C(C)C)NC(=O)[C@H](CC(C)C)NC(=O)[C@H](CC(N)=O)NC(=O)[C@@H]1CCCN1C(=O)[C@H](CCCNC(=N)N)NC2=O [compound 608] (H-DCLG[Gly(octyl)]FRKCIPDNDKCCRPNLVCSRTHKWCKYVF-NH2; disulfide 2-17, 9-23, 16-30) | 11.3 µM | 20.2 µM | 21.8 µM

— patent publication US9340590B2 (priority 2011, dated 2016)
